This experiment deals with Bromodomain-containing protein 4 (Homo sapiens, UniProt O60885). Kind of experiment: Assays were performed as described previously with minor modifications from the manufacturer's protocol (PerkinElmer, USA). All reagents were diluted in 50 mM HEPES, 100 mM NaCl, 0.1% BSA, pH 7.4 supplemented with 0.05% CHAPS and allowed to equilibrate to room temperature prior to addition to plates. […] Plates were sealed and incubated for a further 30 minutes, before the addition of 4 μl of streptavidin-coated donor beads (25 μg/ml) and 4 μl nickel chelate acceptor beads (25 μg/ml) under low light conditions. Plates were foil-sealed to protect from light, incubated at room temperature for 60 minutes and read on a PHERAstar FS plate reader (BMG Labtech, Germany) using an AlphaScreen 680 excitation/570 emission filter set. IC50 values were calculated in Prism 5 (GraphPad Software, USA) after normalization against corresponding DMSO controls and are given as the final concentration of compound in the 20 μl reaction volume.

IC50 data for one molecule are collected here from ChEMBL document CHEMBL5729071, “Cyano thienotriazolodiazepines and uses thereof” (2022).

As to `Cc1sc2c(c1C)C(c1ccc(C#N)cc1)=N[C@@H](CC(=O)OC(C)(C)C)c1nnc(C)n1-2`, the 50% inhibitory concentration (IC50) is 0.097 µM.

In general, IC50 refers to the point on the concentration scale where inhibition reaches its midpoint.
